Literature values, collected in US20210369646A1, “Composition for local tumescent anesthesia” (priority 2020, published 2021).
Where two headings read alike, the source gives them in different places.

Experiments:
[1] = test system: alpha 1 acid glycoprotein; conditions: bound to alpha 1 acid glycoprotein almost entirely
plasminogen = plasminogen (Homo sapiens, UniProt P00747)
Sequence of plasminogen (P00747 20-810 limits assumed): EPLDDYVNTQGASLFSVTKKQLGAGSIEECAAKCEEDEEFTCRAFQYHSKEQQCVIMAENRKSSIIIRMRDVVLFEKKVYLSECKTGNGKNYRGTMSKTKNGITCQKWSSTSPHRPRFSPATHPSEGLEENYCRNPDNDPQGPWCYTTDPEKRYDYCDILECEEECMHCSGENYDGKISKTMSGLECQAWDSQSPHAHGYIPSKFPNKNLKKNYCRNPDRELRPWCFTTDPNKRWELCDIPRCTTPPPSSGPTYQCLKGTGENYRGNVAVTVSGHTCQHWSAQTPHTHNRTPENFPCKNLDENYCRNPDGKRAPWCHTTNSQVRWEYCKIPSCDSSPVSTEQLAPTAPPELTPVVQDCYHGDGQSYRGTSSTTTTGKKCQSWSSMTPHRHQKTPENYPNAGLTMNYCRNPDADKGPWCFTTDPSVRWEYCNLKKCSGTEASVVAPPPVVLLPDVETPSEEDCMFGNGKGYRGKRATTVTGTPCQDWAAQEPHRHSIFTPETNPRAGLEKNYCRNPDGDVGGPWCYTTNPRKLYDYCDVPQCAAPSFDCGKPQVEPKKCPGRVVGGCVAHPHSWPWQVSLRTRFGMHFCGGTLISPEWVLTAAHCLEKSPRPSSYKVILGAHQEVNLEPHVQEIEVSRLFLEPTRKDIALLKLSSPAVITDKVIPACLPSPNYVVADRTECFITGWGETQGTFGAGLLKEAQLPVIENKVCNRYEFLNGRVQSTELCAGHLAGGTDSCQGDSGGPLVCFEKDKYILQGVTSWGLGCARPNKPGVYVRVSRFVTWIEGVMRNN

For `CCCN1CCCC[C@H]1C(=O)Nc1c(C)cccc1C` [Ropivacaine], the “excreted through the kidneys into the urine” value (in vivo) is listed as roughly 86%, the “transformed into 3-hydroxy-ropivacaine (aromatic hydroxylation)” value (liver, share of all anesthetic agent) is listed as 99% and the free protein form [1] is listed as 6%.
In the case of `NC[C@H]1CC[C@H](C(=O)O)CC1` [Tranexamic acid], the plasmatic protein bound (plasmatic protein) is listed as 3%, the free protein form (plasmatic protein; in words) is listed as “no free protein form” and the affinity to plasminogen (plasminogen) is listed as “high affinity”. For the same molecule, the middle lifetime (after the administration) was 3 h and the “excreted through the kidneys into the urine without a conjugated form” value (by the first 24 hours) was 90%.
For `CNC[C@H](O)c1ccc(O)c(O)c1` [Epinephrine], the “total doses excreted into the urine” value (after next 18 hours) is given as 50%, the “total doses excreted into the urine” value (by the first 6 hours) is given as 50% and the middle lifetime (in vivo) is given as 0.00556 h. For the same molecule, the “principal metabolite: conjugated metanephrine” value (in vivo) was 40%, the “principal metabolite: vanillylmandelic acid” value (in vivo) was 40% and the “maximum concentration after a subcutaneous injection (time)” value (subcutaneous injection) was 20 to 40 min.
